Data taken from ChEMBL document CHEMBL3046102, “Antibacterial and antifungal activities of some trimethoprim salts” (2012).
Values after ≈ are worked out from the molar mass of the structure shown.

How the values were obtained:
Proteus vulgaris = assay: microbe, parasite or virus in culture; assay type: functional; conditions: NRLL B-123
Description: Antibacterial activity against Proteus vulgaris NRLL B-123 after 24 to 48 hr by CLSI broth microdilution method

Pseudomonas aeruginosa = assay: microbe, parasite or virus in culture; assay type: functional; conditions: ATCC 27853
Description: Antibacterial activity against Pseudomonas aeruginosa ATCC 27853 after 24 to 48 hr by CLSI broth microdilution method

Klebsiella pneumoniae = assay: microbe, parasite or virus in culture; assay type: functional; conditions: ATCC 700603
Description: Antibacterial activity against Klebsiella pneumoniae ATCC 700603 after 24 to 48 hr by CLSI broth microdilution method

Salmonella typhimurium = assay: microbe, parasite or virus in culture; assay type: functional, Salmonella enterica subsp. enterica serovar Typhimurium; conditions: Salmonella enterica, NRLL B-4420
Description: Antibacterial activity against Salmonella enterica subsp. enterica serovar Typhimurium NRRL B-4420 after 24 to 48 hr by CLSI broth microdilution method

Nakaseomyces glabratus [1] = assay: microbe, parasite or virus in culture; assay type: functional; conditions: ATCC 36583
Description: Antifungal activity against Candida glabrata ATCC 36583 after 24 to 48 hr by CLSI broth microdilution method

Candida albicans [2] = assay: microbe, parasite or virus in culture; assay type: functional; conditions: NRRL Y-27077
Description: Antifungal activity against Candida albicans NRRL Y-27077 after 24 to 48 hr by CLSI broth microdilution method

Nakaseomyces glabratus [3] = assay: Antifungal activity against Candida glabrata clinical isolate after 24 to 48 hr by CLSI broth microdilution method; assay type: functional
Enterococcus faecalis = assay: microbe, parasite or virus in culture; assay type: functional; conditions: ATCC 29212
Description: Antibacterial activity against Enterococcus faecalis ATCC 29212 after 24 to 48 hr by CLSI broth microdilution method

Escherichia coli = assay: microbe, parasite or virus in culture; assay type: functional; conditions: ATCC 35218
Description: Antibacterial activity against Escherichia coli ATCC 35218 after 24 to 48 hr by CLSI broth microdilution method

Staphylococcus aureus = assay: microbe, parasite or virus in culture; assay type: functional; conditions: ATCC 25923
Description: Antibacterial activity against Staphylococcus aureus ATCC 25923 after 24 to 48 hr by CLSI broth microdilution method

Candida parapsilosis = assay: microbe, parasite or virus in culture; assay type: functional; conditions: Lodderomyces parapsilosis, NRRL Y-12969
Description: Antifungal activity against Candida parapsilosis NRRL Y-12969 after 24 to 48 hr by CLSI broth microdilution method

Candida albicans [4] = assay: Antifungal activity against Candida albicans clinical isolate after 24 to 48 hr by CLSI broth microdilution method; assay type: functional
[Candida] zeylanoides = microbe, parasite or virus in culture; assay type: functional; conditions: Dujonia zeylanoides, NRRL Y-1774
Description: Antifungal activity against Candida zeylanoides NRRL Y-1774 after 24 to 48 hr by CLSI broth microdilution method

Cyberlindnera jadinii = assay: Antifungal activity against Cyberlindnera jadinii NRRL Y-900 after 24 to 48 hr by CLSI broth microdilution method; assay type: functional; conditions: Williopsis jadinii
Pichia kudriavzevii = assay: microbe, parasite or virus in culture; assay type: functional; conditions: NRRL Y-7179
Description: Antifungal activity against Pichia kudriavzevii NRRL Y-7179 after 24 to 48 hr by CLSI broth microdilution method

Candida tropicalis = assay: microbe, parasite or virus in culture; assay type: functional; conditions: NRRL Y-12968
Description: Antifungal activity against Candida tropicalis NRRL Y-12968 after 24 to 48 hr by CLSI broth microdilution method

SMILES: COc1cc(Cc2cnc(N)nc2N)cc(OC)c1OC.O=C(O)/C=C\C(=O)O [TRIMETHOPRIM MALEIC ACID SALT]
- MIC (Proteus vulgaris): 50 µg/mL
- MIC (Pseudomonas aeruginosa): 50 µg/mL
- MIC (Klebsiella pneumoniae): 50 µg/mL
- MIC (Salmonella typhimurium): 50 µg/mL
- MIC (Nakaseomyces glabratus [1]): 50 µg/mL
- MIC (Candida albicans [2]): 50 µg/mL
- MIC (Nakaseomyces glabratus [3]): 50 µg/mL
- MIC (Enterococcus faecalis): 50 µg/mL
- MIC (Escherichia coli): 50 µg/mL

SMILES: O=C(N[C@H](CO)[C@H](O)c1ccc([N+](=O)[O-])cc1)C(Cl)Cl [CHLORAMPHENICOL]
- MIC (Proteus vulgaris): 50 µg/mL (≈ 155 µM)
- MIC (Pseudomonas aeruginosa): 50 µg/mL (≈ 155 µM)
- MIC (Klebsiella pneumoniae): 12.5 µg/mL (≈ 38.7 µM)
- MIC (Salmonella typhimurium): 12.5 µg/mL (≈ 38.7 µM)
- MIC (Staphylococcus aureus): 50 µg/mL (≈ 155 µM)
- MIC (Enterococcus faecalis): 12.5 µg/mL (≈ 38.7 µM)

SMILES: COc1cc(Cc2cnc(N)nc2N)cc(OC)c1OC.O.O.O=C(O)C(=O)O [TRIMETHOPRIM OXALIC ACID SALT DIHYDRATE]
- MIC (Proteus vulgaris): 50 µg/mL
- MIC (Pseudomonas aeruginosa): 50 µg/mL
- MIC (Klebsiella pneumoniae): 50 µg/mL
- MIC (Salmonella typhimurium): 50 µg/mL
- MIC (Nakaseomyces glabratus [1]): 50 µg/mL
- MIC (Candida albicans [2]): 50 µg/mL
- MIC (Nakaseomyces glabratus [3]): 25 µg/mL
- MIC (Enterococcus faecalis): 50 µg/mL
- MIC (Escherichia coli): 50 µg/mL

SMILES: CC(=O)N1CCN(c2ccc(OCC3COC(Cn4ccnc4)(c4ccc(Cl)cc4Cl)O3)cc2)CC1 (configuration not stated) [KETOCONAZOLE]
- MIC (Candida parapsilosis): 1.56 µg/mL (≈ 2.94 µM)
- MIC (Candida albicans [4]): 3.12 µg/mL (≈ 5.88 µM)
- MIC ([Candida] zeylanoides): 25 µg/mL (≈ 47 µM)
- MIC (Nakaseomyces glabratus [1]): 25 µg/mL (≈ 47 µM)
- MIC (Candida albicans [2]): 12.5 µg/mL (≈ 23.5 µM)
- MIC (Nakaseomyces glabratus [3]): 3.12 µg/mL (≈ 5.88 µM)
- MIC (Cyberlindnera jadinii): 12.5 µg/mL (≈ 23.5 µM)
- MIC (Pichia kudriavzevii): 25 µg/mL (≈ 47 µM)
- MIC (Candida tropicalis): 12.5 µg/mL (≈ 23.5 µM)

SMILES: COc1cc(Cc2cnc(N)nc2N)cc(OC)c1OC [TRIMETHOPRIM]
- MIC (Proteus vulgaris): 50 µg/mL (≈ 172 µM)
- MIC (Pseudomonas aeruginosa): 50 µg/mL (≈ 172 µM)
- MIC (Klebsiella pneumoniae): 50 µg/mL (≈ 172 µM)
- MIC (Salmonella typhimurium): 50 µg/mL (≈ 172 µM)
- MIC (Nakaseomyces glabratus [1]): 50 µg/mL (≈ 172 µM)
- MIC (Candida albicans [2]): 50 µg/mL (≈ 172 µM)
- MIC (Nakaseomyces glabratus [3]): 25 µg/mL (≈ 86.1 µM)
- MIC (Enterococcus faecalis): 50 µg/mL (≈ 172 µM)
- MIC (Escherichia coli): 50 µg/mL (≈ 172 µM)
